Source: paper PMC4279406, “Simultaneous targeting of PI3Kδ and a PI3Kδ-dependent MEK1/2-Erk1/2 pathway for therapy in pediatric B-cell acute lymphoblastic leukemia” (Oncotarget, 2014)

Columns and labels:
[1] = system: PI3Kδ (M-CSF-stimulated THP-1 monocytes); test: M-CSF-induced Akt phosphorylation in THP-1 cells; format: cell-based; conditions: at 10 nM; M-CSF 50 ng/ml
Experimental: In fibroblasts, signals from the insulin-like growth factor 1 (IGF-1) receptor are mediated by PI3Kα, while lysophosphatidic acid (LPA) stimulates G-protein coupled receptor (GPCR) signals via PI3Kβ[26]. After being pre-incubated with X-370, murine embryonic fibroblasts cultured in serum-free medium were stimulated with IGF-1 or LPA. […] Either PI3Kδ or PI3Kγ can be activated in THP-1 monocytes dependent on the stimulating ligand, among which macrophage colony stimulating factor (M-CSF/CSF-1) activates RTK-coupled PI3Kδ, while monocyte chemoattractant protein-1 (MCP-1) activates PI3Kγ [24]. Accordingly, THP-1 cells cultured in serum-free medium were stimulated with MCP-1 or M-CSF in the presence of X-370 and phosphorylated Akt was measured.
Cell lysates were probed with indicated antibodies. The IC50 values were calculated based on relative band intensity measured with ImageQuant™ TL (GE Healthcare Life Sciences, Piscataway, NJ) (B). Data shown are mean values from three independent experiments. (C, D, E, F) X-370 blocked stimuli-triggered PI3Kδ activation. MEF cells and THP-1 were starved in serum-free medium for 12 h or 4 h respectively and X-370 were added for an additional 1 h treatment following stimulation of IGF-1 at 100 ng/ml for MEF cells (C), LPA at 10 μM for MEF cells (D), MCP-1 at 100ng/ml for THP-1 (E) and M-CSF at 50 ng/ml for THP-1 (F). […]

PIP5K1α = biological target: T1, PIP5K1α (Homo sapiens, UniProt Q99755); test: Kinase Profiler lipid kinase relative activity; format: biochemical; conditions: X-370 10 μM, compared to DMSO control
T1 construct: purchased Millipore (Kinase Profiler Services, United Kingdom)
Experimental: (§1) Figure 1 Structure of X-370 and its inhibitory activity against lipid kinases (A) Chemical structure of X-370. (B) X-370 docked to the crystal structure of PI3Kδ. The model was generated based on the co-crystal structure of PI3Kδ and ZSTK474 (PDB ID: 2WXL). (C) IC50 of X-370 against PI3Kδ increased along with ATP concentration. […] Data was obtained from Kinase Profiler Services (Millipore, United Kingdom). Briefly, X-370 was solved in DMSO at a concentration of 10 mM, 10-point kinase inhibitory activity was measured over concentrations in a half-log dilution series started at 1000 nM with ATP at a concentration consistent with Km of each isoform of class I PI3K and IC50s were calculated. Relative kinase activity in the presence of 10 μM X-370 compared to DMSO control was measured for the rest of lipid kinases. TEXT PRINTED IN THE PICTURE: (D) X-370: IC50 (nM): 7 (Isoform: PI3Kδ); IC50 (nM): 433 (Isoform: PI3Kα); IC50 (nM): >1,000 (Isoform: PI3Kγ); IC50 (nM): >1,000 (Isoform: PI3Kβ); Relative Activity (%) X-370 (10 μM): 55 (Lipid Kinases: PI3KC2α); Relative Activity (%) X-370 (10 μM): 63 (Lipid Kinases: PI3KC2γ); Relative Activity (%) X-370 (10 μM): 105 (Lipid Kinases: PIP4K2α); Relative Activity (%) X-370 (10 μM): 100 (Lipid Kinases: PIP5K1α); Relative Activity (%) X-370 (10 μM): 103 (Lipid Kinases: PIP5K1γ) DOUBTS OF THE COPYIST ABOUT THIS PICTURE: Panel D, left table (Isoform / IC50): no substance label is printed in this table; assigned to X-370, the only label printed in the panel (head of the right table)
(§2) In vitro kinase profile assays were analyzed by the Kinase Profiler Service (Millipore, United Kingdom) following its guidelines. A GST-tagged human p110δ and regulatory full-length p85 were co-expressed in insect cell Sf9. Recombinant protein was extracted by affinity purification. The PI3K kinase activity was determined in the increasing concentration of ATP and X-370 with PI3-Kinase HTRF™ Assay kit (Millipore) as described previously.

PIP4K2α = biological target: T2, PIP4K2α (Homo sapiens, UniProt P48426); test: Kinase Profiler lipid kinase relative activity; format: biochemical; conditions: X-370 10 μM, compared to DMSO control
T2 construct: purchased Millipore (Kinase Profiler Services, United Kingdom)
Experimental: as §1, §2

PI3KC2α = biological target: T3, PI3KC2α (Homo sapiens, UniProt O00443); test: Kinase Profiler lipid kinase relative activity; format: biochemical; conditions: X-370 10 μM, compared to DMSO control
T3 construct: purchased Millipore (Kinase Profiler Services, United Kingdom)
Experimental: as §1, §2

PIP5K1γ = biological target: T4, PIP5K1γ (Homo sapiens, UniProt O60331); test: Kinase Profiler lipid kinase relative activity; format: biochemical; conditions: X-370 10 μM, compared to DMSO control
T4 construct: purchased Millipore (Kinase Profiler Services, United Kingdom)
Experimental: as §1, §2

PI3KC2γ = biological target: T5, PI3KC2γ (Homo sapiens, UniProt O75747); test: Kinase Profiler lipid kinase relative activity; format: biochemical; conditions: X-370 10 μM, compared to DMSO control
T5 construct: purchased Millipore (Kinase Profiler Services, United Kingdom)
Experimental: as §1, §2

T5 sequence (O75747 whole entry, species assumed): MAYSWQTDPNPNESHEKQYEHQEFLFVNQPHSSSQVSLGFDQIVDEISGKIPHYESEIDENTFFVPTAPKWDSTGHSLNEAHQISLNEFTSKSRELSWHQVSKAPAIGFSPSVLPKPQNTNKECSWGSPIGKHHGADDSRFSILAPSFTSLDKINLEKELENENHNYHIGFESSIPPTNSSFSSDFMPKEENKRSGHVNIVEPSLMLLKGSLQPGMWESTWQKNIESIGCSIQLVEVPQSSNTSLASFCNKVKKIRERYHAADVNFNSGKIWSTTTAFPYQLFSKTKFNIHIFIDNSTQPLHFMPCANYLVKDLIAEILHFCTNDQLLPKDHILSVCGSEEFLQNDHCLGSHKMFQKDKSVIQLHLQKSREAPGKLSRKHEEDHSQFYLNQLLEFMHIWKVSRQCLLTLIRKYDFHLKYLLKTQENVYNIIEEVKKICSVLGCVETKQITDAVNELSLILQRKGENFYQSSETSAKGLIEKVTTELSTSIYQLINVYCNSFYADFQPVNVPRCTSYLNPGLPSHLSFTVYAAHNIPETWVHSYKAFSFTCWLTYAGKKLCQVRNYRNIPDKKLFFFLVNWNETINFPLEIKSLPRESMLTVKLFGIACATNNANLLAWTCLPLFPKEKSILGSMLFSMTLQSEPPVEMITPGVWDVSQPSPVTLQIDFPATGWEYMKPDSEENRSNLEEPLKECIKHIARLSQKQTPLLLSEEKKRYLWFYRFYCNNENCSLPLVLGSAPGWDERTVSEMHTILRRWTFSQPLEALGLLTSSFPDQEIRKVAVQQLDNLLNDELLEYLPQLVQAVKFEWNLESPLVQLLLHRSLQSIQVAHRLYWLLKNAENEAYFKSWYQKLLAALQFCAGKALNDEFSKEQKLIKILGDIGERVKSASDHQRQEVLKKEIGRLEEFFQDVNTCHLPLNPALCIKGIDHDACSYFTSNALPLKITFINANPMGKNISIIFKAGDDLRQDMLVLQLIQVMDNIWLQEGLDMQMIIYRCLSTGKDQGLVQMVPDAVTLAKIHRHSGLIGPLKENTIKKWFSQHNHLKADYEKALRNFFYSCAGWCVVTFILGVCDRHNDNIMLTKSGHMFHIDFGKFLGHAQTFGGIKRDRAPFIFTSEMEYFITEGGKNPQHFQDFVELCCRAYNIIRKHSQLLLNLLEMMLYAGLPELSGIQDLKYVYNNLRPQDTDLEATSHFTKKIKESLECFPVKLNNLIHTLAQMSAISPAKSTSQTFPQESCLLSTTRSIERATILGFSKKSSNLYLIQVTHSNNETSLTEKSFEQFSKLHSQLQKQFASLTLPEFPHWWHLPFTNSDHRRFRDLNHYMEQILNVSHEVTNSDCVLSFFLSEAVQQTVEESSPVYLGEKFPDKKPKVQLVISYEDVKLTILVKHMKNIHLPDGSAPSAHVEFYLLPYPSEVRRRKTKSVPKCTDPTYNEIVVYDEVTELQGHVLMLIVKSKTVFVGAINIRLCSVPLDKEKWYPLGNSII
T3 sequence (O00443 whole entry, species assumed): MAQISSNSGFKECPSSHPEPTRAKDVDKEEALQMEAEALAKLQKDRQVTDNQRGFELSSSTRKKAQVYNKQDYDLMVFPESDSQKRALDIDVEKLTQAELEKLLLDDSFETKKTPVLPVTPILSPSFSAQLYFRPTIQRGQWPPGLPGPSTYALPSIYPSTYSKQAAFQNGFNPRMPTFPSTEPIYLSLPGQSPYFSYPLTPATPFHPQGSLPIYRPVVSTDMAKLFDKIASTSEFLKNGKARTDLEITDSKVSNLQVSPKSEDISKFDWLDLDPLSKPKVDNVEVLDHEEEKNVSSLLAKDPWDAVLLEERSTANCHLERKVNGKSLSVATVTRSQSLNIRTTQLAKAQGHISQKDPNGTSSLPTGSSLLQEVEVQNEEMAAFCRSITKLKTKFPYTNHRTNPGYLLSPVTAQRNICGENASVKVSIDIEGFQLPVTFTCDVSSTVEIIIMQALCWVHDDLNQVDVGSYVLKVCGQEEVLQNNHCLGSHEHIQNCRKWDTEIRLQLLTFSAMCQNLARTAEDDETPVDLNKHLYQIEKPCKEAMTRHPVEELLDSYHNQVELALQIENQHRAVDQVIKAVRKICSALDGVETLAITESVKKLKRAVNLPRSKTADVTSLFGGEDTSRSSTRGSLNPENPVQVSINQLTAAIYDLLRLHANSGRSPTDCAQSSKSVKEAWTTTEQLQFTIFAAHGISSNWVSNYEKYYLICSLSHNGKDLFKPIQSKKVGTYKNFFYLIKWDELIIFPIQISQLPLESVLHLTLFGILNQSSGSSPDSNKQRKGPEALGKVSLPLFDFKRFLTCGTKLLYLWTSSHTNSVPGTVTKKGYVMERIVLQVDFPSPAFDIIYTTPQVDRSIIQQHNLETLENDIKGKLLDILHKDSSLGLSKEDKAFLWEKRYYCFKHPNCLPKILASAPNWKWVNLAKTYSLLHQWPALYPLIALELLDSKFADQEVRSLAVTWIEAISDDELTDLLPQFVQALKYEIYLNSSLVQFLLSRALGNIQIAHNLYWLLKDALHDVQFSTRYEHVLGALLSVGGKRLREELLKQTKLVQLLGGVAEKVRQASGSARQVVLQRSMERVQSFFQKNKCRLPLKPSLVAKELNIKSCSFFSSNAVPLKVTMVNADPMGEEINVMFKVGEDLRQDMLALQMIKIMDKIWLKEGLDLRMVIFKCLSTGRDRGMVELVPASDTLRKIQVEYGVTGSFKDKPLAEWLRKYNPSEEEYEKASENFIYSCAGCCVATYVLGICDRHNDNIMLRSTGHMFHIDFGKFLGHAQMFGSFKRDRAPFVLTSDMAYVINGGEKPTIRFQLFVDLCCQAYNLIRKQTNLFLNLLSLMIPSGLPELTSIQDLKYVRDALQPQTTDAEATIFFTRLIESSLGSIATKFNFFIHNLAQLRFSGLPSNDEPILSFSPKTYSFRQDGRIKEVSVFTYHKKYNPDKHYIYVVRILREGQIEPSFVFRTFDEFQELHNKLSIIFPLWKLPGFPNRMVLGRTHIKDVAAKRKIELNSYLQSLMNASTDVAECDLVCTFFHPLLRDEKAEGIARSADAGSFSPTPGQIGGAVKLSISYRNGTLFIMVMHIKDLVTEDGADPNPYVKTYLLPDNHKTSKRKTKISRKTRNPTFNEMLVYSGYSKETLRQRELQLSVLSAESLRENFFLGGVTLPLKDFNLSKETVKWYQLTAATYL
T4 sequence (O60331 whole entry, species assumed): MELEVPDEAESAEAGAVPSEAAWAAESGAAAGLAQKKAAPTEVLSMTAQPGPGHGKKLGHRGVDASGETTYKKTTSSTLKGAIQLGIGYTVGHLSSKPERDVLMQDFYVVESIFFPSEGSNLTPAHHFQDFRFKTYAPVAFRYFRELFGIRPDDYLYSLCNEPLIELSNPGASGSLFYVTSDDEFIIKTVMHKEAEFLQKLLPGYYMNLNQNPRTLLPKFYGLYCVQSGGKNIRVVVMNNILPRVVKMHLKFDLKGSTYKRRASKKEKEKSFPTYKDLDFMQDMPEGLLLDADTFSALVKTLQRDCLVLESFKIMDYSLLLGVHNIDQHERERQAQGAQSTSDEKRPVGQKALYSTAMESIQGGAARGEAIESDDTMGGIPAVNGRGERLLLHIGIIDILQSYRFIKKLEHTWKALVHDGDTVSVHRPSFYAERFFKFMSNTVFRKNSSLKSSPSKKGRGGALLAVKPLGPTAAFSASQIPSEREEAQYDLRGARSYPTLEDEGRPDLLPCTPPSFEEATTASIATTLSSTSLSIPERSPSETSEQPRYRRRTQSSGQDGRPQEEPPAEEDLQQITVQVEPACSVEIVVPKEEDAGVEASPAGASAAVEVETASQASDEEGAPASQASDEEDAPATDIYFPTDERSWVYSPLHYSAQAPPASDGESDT
T2 sequence (P48426 whole entry): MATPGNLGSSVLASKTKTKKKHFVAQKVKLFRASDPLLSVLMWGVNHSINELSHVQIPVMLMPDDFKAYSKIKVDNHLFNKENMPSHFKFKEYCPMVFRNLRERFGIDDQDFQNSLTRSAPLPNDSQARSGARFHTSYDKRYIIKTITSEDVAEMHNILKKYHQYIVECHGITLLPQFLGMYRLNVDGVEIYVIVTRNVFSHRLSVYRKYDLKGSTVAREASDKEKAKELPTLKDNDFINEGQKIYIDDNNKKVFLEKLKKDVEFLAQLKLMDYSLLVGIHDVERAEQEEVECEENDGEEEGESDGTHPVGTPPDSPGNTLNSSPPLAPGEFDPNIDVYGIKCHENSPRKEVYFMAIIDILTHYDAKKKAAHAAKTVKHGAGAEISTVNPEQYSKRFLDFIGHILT
T1 sequence (Q99755 whole entry, species assumed): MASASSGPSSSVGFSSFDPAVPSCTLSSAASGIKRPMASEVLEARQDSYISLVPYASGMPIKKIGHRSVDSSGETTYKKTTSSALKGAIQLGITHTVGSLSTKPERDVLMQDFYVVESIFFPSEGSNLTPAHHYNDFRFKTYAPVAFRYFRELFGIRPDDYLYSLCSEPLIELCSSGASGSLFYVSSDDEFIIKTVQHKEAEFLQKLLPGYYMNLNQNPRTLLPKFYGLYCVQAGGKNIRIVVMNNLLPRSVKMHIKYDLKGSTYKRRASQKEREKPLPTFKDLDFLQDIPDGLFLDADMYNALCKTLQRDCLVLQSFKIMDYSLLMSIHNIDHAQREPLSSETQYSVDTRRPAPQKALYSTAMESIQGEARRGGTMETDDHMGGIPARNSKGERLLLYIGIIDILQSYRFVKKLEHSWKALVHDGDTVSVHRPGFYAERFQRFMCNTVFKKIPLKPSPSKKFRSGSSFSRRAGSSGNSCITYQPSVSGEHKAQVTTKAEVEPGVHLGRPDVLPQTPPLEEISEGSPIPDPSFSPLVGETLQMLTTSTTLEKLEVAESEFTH

- activity at 10 µM (PIP5K1α): 100%
- activity at 10 µM (PIP4K2α): 105%
- activity at 10 µM (PI3KC2α): 55%
- activity at 10 µM (PIP5K1γ): 103%
- activity at 10 µM (PI3KC2γ): 63%
SMILES: O=C(N1CCCC1)N1CCC(n2cnc3c(-n4c(C(F)F)nc5ccccc54)nc(N4CCOCC4)nc32)CC1 [X-370]
- M-CSF-induced Akt phosphorylation [1]: completely blocked
